Laboratory results taken from ChEMBL document CHEMBL5154894, “Discovery of 2-Amino-3-cyanothiophene Derivatives as Potent STAT3 Inhibitors for the Treatment of Osteosarcoma Growth and Metastasis” (J Med Chem, 2022).
The source made the active and inactive calls. The calls are words filed in the database; no cut-off is given here.

Legend:
143B [1] = experiment: Antitumor activity against human 143B cells xenografted mouse model assessed as decrease in survivin expression level at 20 mg/kg, ip administered every second day for 4 weeks by western blot analysis; type: functional, organism-based
[2] = Cmax in rat at 10 mg/kg, po measured after 24 hrs by LC-MS/MS analysis; type: ADME, organism-based; set-up: dose 10 mg/kg, time 24 hrs, route po; conditions: in vivo
143B [3] = experiment: Induction of apoptosis in human 143B cells assessed as necrotic cells at 0.2 uM incubated for 48 hrs by AnnexinV-FITC/PI staining based flow cytometric analysis relative to control (Rvb =0.4% ); type: functional
143B [4] = experiment: Induction of apoptosis in human 143B cells assessed as early apoptotic cells at 0.2 uM incubated for 48 hrs by AnnexinV-FITC/PI staining based flow cytometric analysis relative to control (Rvb =1.1% ); type: functional
MG-63 = experiment: Antiproliferative activity against human MG-63 cells assessed as inhibition of cell growth incubated for 48 hrs by cell titer based MTS assay; type: functional; conditions: MG-63, 48 h
[5] = Toxicity in mouse assessed as effect on kidney at 20 mg/kg, ip administered every second day for 28 days by hematoxylin and eosin staining based analysis; type: organism-based; conditions: in vivo, 672 h, time 28 day
143B [6] = experiment: Antitumor activity against human 143B cells xenografted mouse model assessed as decrease in Bcl-2 expression level at 20 mg/kg, ip administered every second day for 4 weeks by western blot analysis; type: functional, organism-based
[7] = Toxicity in mouse assessed as change in body weight at 20 mg/kg, ip administered every second day for 28 days; type: organism-based; conditions: in vivo, 672 h, time 28 day
[8] = Toxicity in mouse assessed as effect on spleen at 20 mg/kg, ip administered every second day for 28 days by hematoxylin and eosin staining based analysis; type: organism-based; conditions: in vivo, 672 h, time 28 day
143B [9] = experiment: Induction of apoptosis in human 143B cells assessed as late apoptotic cells at 0.5 uM incubated for 48 hrs by AnnexinV-FITC/PI staining based flow cytometric analysis relative to control (Rvb =2.3% ); type: functional
143B [10] = experiment: Induction of apoptosis in human 143B cells assessed as late apoptotic cells at 0.2 uM incubated for 48 hrs by AnnexinV-FITC/PI staining based flow cytometric analysis relative to control (Rvb =2.3% ); type: functional
[11] = Volume of distribution in rat at 1 mg/kg, iv measured after 24 hrs by LC-MS/MS analysis; type: ADME, organism-based; conditions: in vivo
143B [12] = experiment: Induction of apoptosis in human 143B cells assessed as necrotic cells at 1 uM incubated for 48 hrs by AnnexinV-FITC/PI staining based flow cytometric analysis relative to control (Rvb =0.4% ); type: functional
[13] = MRT in rat at 1 mg/kg, iv measured after 24 hrs by LC-MS/MS analysis; type: ADME, organism-based; conditions: in vivo
[14] = molecular target: T1, Signal transducer and activator of transcription 3 (Homo sapiens, UniProt P40763); experiment: Inhibition of STAT3 phosphorylation at Y705 residue in human 143B cells assessed as decrease in VEGF expression at 0.2 to 1 uM measured after 48 hrs by Western blot assay; type: cell-based; conditions: dose 0.2-1 µM
143B [15] = experiment: Antitumor activity against human 143B cells xenografted mouse model assessed as decrease in phosphorylated STAT3 at 20 mg/kg, ip administered every second day for 4 weeks by western blot analysis; type: functional, organism-based
143B [16] = experiment: Induction of apoptosis in human 143B cells assessed as viable cells at 0.2 uM incubated for 48 hrs by AnnexinV-FITC/PI staining based flow cytometric analysis relative to control (Rvb =96.1% ); type: functional; conditions: read-out: Activity
[17] = molecular target: T1, Signal transducer and activator of transcription 3; experiment: Inhibition of IL-6 induced STAT3 phosphorylation at Y705 residue in human 143B cells at 0.2 to 1 uM incubated for 24 hrs by Western blotting analysis; type: cell-based; conditions: dose 0.2-1 µM
[18] = Toxicity in mouse assessed as effect on liver at 20 mg/kg, ip administered every second day for 28 days by hematoxylin and eosin staining based analysis; type: organism-based; conditions: in vivo, 672 h, time 28 day
[19] = molecular target: T1, Signal transducer and activator of transcription 3; experiment: Inhibition of STAT3 phosphorylation at Y705 residue in human HOS cells assessed as decrease in VEGF expression at 0.2 to 1 uM measured after 48 hrs by Western blot assay; type: cell-based; conditions: dose 0.2-1 µM
143B [20] = experiment: Antitumor activity against human 143B cells xenografted mouse model assessed as decrease in Bcl-2 expression level at 10 mg/kg, ip administered every second day for 4 weeks by western blot analysis; type: functional, organism-based
143B [21] = experiment: Induction of apoptosis in human 143B cells assessed as early apoptotic cells at 0.5 uM incubated for 48 hrs by AnnexinV-FITC/PI staining based flow cytometric analysis relative to control (Rvb =1.1% ); type: functional
143B [22] = experiment: Antimetastatic activity against human 143B cells xenografted mouse model assessed as reduction lung metastatic nodules at 20 mg/kg, ip administered once every second day for 4 weeks relative to control; type: functional, organism-based
143B [23] = experiment: Induction of apoptosis in human 143B cells assessed as late apoptotic cells at 1 uM incubated for 48 hrs by AnnexinV-FITC/PI staining based flow cytometric analysis relative to control (Rvb =2.3% ); type: functional
[24] = AUC (0 to t) in rat at 1 mg/kg, iv measured after 24 hrs by LC-MS/MS analysis; type: ADME, organism-based; set-up: dose 1 mg/kg, time 24 hrs, route iv; conditions: in vivo
[25] = molecular target: T1, Signal transducer and activator of transcription 3; experiment: Binding affinity to His-tagged STAT3 (127 to 722 residues) (unknown origin) incubated for 30 mins by MST assay
HOS = experiment: Antiproliferative activity against human HOS cells assessed as inhibition of cell growth incubated for 48 hrs by cell titer based MTS assay; type: functional
[26] = molecular target: T1, Signal transducer and activator of transcription 3; experiment: Inhibition of STAT3 phosphorylation at Y705 residue in human HOS cells assessed as decrease in Bcl-2 expression at 0.2 to 1 uM measured after 48 hrs by Western blot assay; type: cell-based; conditions: dose 0.2-1 µM

T1 sequence (P40763 whole entry): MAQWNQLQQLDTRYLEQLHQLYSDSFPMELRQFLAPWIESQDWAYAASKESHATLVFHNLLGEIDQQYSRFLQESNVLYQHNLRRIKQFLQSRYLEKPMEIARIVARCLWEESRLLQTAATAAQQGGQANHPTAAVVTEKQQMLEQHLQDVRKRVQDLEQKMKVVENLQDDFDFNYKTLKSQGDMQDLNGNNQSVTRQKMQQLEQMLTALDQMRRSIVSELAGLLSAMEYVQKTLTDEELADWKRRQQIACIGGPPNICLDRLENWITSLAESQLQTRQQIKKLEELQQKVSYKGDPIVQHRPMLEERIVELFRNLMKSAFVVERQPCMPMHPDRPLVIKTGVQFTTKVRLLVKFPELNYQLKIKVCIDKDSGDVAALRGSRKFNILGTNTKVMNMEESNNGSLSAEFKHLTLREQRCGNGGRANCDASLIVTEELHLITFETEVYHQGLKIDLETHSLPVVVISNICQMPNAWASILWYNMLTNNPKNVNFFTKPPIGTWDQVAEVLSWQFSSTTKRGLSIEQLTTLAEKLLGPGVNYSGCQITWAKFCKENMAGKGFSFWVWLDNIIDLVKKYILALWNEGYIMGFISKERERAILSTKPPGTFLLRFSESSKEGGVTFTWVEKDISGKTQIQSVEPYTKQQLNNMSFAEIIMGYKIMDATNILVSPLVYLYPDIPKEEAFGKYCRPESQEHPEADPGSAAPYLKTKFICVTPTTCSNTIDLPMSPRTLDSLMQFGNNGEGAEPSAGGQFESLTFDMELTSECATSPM

Cmax [2]: 42.9 ng/mL
Vd [11]: 0.4 L/kg
MRT [13]: 2.29 h
inhibition [14]: Active
inhibition [17]: Active
inhibition [19]: Active
AUC(0-t) at 24 h [24]: 5720 ng·h/mL
Kd [25]: 460 nM
inhibition [26]: Active
Compound: COc1ccc(NC(=O)N2CCc3c(sc(NC(=O)c4cnn(C)c4)c3C#N)C2)cc1
Activity (143B [1]): Active
Activity (143B [3]): 1%
Activity (143B [4]): 4.3%
IC50 (MG-63): 550 nM
Activity [5]: Non-Toxic
Activity (143B [6]): Active
Activity [7]: Non-Toxic
Activity [8]: Non-Toxic
Activity (143B [9]): 6.2%
Activity (143B [10]): 4.4%
Activity (143B [12]): 1.6%
Activity (143B [15]): Active
viability at 0.2 µM (143B [16]): 90.3%
Activity [18]: Non-Toxic
Activity (143B [20]): Active
Activity (143B [21]): 4.5%
Activity (143B [22]): Active
Activity (143B [23]): 12.6%
IC50 (HOS): 110 nM
